Laboratory results published in BindingDB's records for doi:10.1016/j.ejmech.2012.11.020 (North Maharashtra University, 2013).

Molecular target: T1, Pancreatic alpha-amylase (Sus scrofa, UniProt P00690)
T1 sequence (P00690 whole entry): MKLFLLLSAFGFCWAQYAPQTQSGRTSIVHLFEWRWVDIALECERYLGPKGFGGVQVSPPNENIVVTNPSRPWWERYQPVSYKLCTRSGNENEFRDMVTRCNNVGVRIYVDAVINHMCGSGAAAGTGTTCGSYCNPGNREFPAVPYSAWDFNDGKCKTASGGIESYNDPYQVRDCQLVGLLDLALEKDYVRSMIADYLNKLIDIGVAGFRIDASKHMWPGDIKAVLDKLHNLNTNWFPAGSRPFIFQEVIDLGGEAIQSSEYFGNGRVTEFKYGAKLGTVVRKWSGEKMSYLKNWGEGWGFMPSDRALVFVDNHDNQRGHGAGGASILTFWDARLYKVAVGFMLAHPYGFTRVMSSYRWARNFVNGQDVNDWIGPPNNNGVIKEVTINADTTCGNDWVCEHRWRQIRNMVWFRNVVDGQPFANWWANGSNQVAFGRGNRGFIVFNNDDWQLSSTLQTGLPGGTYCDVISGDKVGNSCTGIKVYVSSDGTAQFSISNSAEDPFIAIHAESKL
Test: Inhibition of pig pancreatic alpha-amylase by Bernfeld method

Row | IC50 | SMILES
1 | 17.9 µM | CCOc1ccc2nc(N=C(CC(=O)c3ccc(Cl)cc3)SC)sc2c1
2 | 17.8 µM | CSC(CC(=O)c1ccc(Br)cc1)=Nc1nc2ccccc2s1
